Key:
clinical [1] = conditions: human, in vivo, 16 mg
Description: (§1) In a single-dose, crossover study conducted to evaluate the potential for a drug-drug interaction between liquid Maalox and cilansetron, 12 male and 12-female subjects (aged 19-39 years) received single doses of cilansetron 16 mg alone and cilansetron 16 mg+Maalox in a crossover fashion under fasted conditions. Blood samples for measurement of plasma cilansetron pharmacokinetics were collected up to 24 hours postdose following each treatment.
(§2) The effect of concomitantly administered antacid (liquid Maalox) on the pharmacokinetics of cilansetron has been evaluated in a single-dose, crossover study in 24 healthy, male and female subjects, aged 19 to 39 years. Subjects received the following two treatments during each of the study periods in a crossover fashion: a single oral dose of cilansetron 16 mg tablet (reference treatment); a single oral dose of cilansetron 16 mg tablet+20 mL oral Maalox liquid administered every 4 hours (test treatment; 4 doses of Maalox in total; cilansetron was administered 5 minutes after the first dose of Maalox). Both cilansetron treatments were administered under fasted conditions.

[2] = test system: non-constipated IBS subjects; assay: Study S241.2.113: Phase II dose-ranging efficacy; assay type: in vivo, human
Description: Study S241.2.113 was a Phase II, double-blind, placebo-controlled, randomized, multi-center, parallel-group, dose-ranging study to investigate the efficacy and safety of cilansetron in nonconstipated subjects with irritable bowel syndrome. The study was conducted in 55 study centers in Canada, France, Austria, Germany, United Kingdom, Italy, Belgium, and The Netherlands. A total of at least 88 subjects per treatment group evaluable for efficacy were planned, in total 440 to complete the study; 776 subjects were screened; 485 subjects were randomized (479 in the safety sample). Diagnosis and main criteria for inclusion were IBS subjects satisfying the Rome criteria (1992) and minimum abdominal pain/discomfort, stool frequency and consistency determined during the run-in period.
Subjects were treated with cilansetron 1 mg, 2 mg, 4 mg and 16 mg tablets given orally TID or matching placebo tablets given orally TID for 12 weeks.
The primary efficacy parameter was the weekly global question concerning adequate relief of IBS symptoms (abdominal pain/discomfort, abnormal bowel habits). A responder is a subject who responded “Yes” at least 50% of the time after randomization, with a minimum treatment duration of four weeks.

healthy subjects = assay: Study K.241.5009: esophageal motility; assay type: in vivo, human; conditions: mean
Description: The effect of cilansetron on esophageal motility was evaluated in a randomized, double-blind, placebo-controlled, 3-way crossover study in 12 male healthy subjects (ITT population), aged 32-62 years. Subjects received placebo, cilansetron 4 mg, or cilansetron 8 mg administered orally TID for 7 days during each of the 3 periods, with a 7-day washout between periods. Before conduct of esophageal distension tests using an intraesophageal balloon, primary esophageal motility was induced by at least 5 wet swallows of 5 mL water and […] manometrically registered. Amplitude and duration of esophageal contractions were measured in 3 channels proximal and distal to the balloon and the velocity of propagation of contractions was […] measured over the 2 inter-channel intervals. […] For velocity of propagation, a slight trend towards […] reduced velocity with increasing cilansetron dose was found in the 7-2 cm interval but not in the 17-7 cm interval, and there was no effects seen on onset in either interval.

[3] = both, human, in vivo, 32 mg
Description: (§3) Two randomized, double-blind, placebo controlled, balanced incomplete block design, crossover studies evaluated the single- and multiple-dose pharmacokinetics of oral cilansetron over a 8 mg to 32 mg dose range. In both studies, subjects were randomized to receive two of three treatments during 2 treatment periods. In one study (12 male and 13 female subjects, aged 23 to 36 years), subjects received 8 mg cilansetron, 16 mg cilansetron, or placebo, while in another study (12 males and 13 females, aged 23 to 41 years), subjects received 16 mg cilansetron, 32 mg cilansetron, or placebo. During each treatment period, subjects received a single dose of their assigned treatment on the first day, followed by a 3-day washout, after which they received the same treatment TID for 5 days.
(§4) There was a 5-6 day washout period between treatment periods. Doses on the mornings of pharmacokinetic days were administered under fasted conditions. Serial blood sampling and urine collection was performed up to 12 hours following morning dosing on the first day (single dose) and on the last multiple dosing day of each treatment period, and cilansetron pharmacokinetic parameters were evaluated.
(§5) In two randomized, double-blind, placebo controlled, balanced incomplete block design, crossover studies evaluating the single- and multiple-dose pharmacokinetics of oral cilansetron over a 8 mg to 32 mg dose range, subjects were randomized to receive two of three treatments during 2 treatment periods. In Study S.241.1.101; (12 male and 13 female subjects, aged 23 to 36 years), subjects received 8 mg cilansetron, 16 mg cilansetron, or placebo, while in Study S.24 1.1.102; (12 males and 13 females, aged 23 to 41 years), subjects received 16 mg cilansetron, 32 mg cilansetron, or placebo. During each treatment period, subjects received a single dose of their assigned treatment on the first day, followed by a 3-day washout, after which they received the same treatment TID for 5 days. There was a 5-6 day washout period between treatment periods. Doses on the mornings of pharmacokinetic days were administered under fasted conditions. Serial blood sampling and urine collection was performed up to 12 hours following morning dosing on the first day (single dose) and on the last multiple dosing day of each treatment period, and cilansetron pharmacokinetic parameters were evaluated.

[4] = both, human, in vivo
Description: as §1, §2

clinical [5] = conditions: human, in vivo
Description: as §3, §4, §5

[6] = channel 2 cm, 4 mg TID oral 7 days
[7] = channel 2 cm, 8 mg TID oral 7 days
[8] = channel 7 cm, 4 mg TID oral 7 days
[9] = channel 7 cm, 8 mg TID oral 7 days
[10] = channel 17 cm, 4 mg TID oral 7 days
[11] = channel 17 cm, 8 mg TID oral 7 days
[12] = inter-channel interval 7-2 cm, 4 mg TID oral 7 days
[13] = inter-channel interval 7-2 cm, 8 mg TID oral 7 days
[14] = inter-channel interval 17-7 cm, 4 mg TID oral 7 days
[15] = inter-channel interval 17-7 cm, 8 mg TID oral 7 days

SMILES: Cc1nccn1C[C@H]1CCc2c(c3cccc4c3n2CCC4)C1=O [Cilansetron, (R)-(−)-4,5,6,8,9,10-hexahydro-10-[(2-methyl-1H-imidazol-1-yl)methyl]-11H-pyrido-[3,2,1-jk]-carbazol-11-one]
- AUC(0-inf) (clinical [1]; both): 264 ng·h/mL
- AUC(0-t) (clinical [1]; both): 264 ng·h/mL
- Cmax (clinical [1]; both): 102 ng/mL
- Vd/F (clinical [1]; both): 237 L
- half-life (clinical [1]; both): 2.39 h
- AUC(0-inf) (clinical [1]; female): 361 ng·h/mL
- AUC(0-t) (clinical [1]; female): 360 ng·h/mL
- Cmax (clinical [1]; female): 137 ng/mL
- Vd/F (clinical [1]; female): 202 L
- half-life (clinical [1]; female): 2.97 h
- AUC(0-inf) (clinical [1]; male): 159 ng·h/mL
- AUC(0-t) (clinical [1]; male): 159 ng·h/mL
- Cmax (clinical [1]; male): 63.1 ng/mL
- Vd/F (clinical [1]; male): 276 L
- half-life (clinical [1]; male): 1.75 h
- Responder rate higher than placebo ([2]; 1 mg TID): 11%
- Responder rate better than placebo ([2]; 2 mg TID): 22%
- Responder rate higher than placebo ([2]; 4 mg TID): 8%
- Responder rate higher than placebo ([2]; 16 mg TID): 18%
- Contraction Force Amplitude, Absolute Values (healthy subjects; [6]): 88.3 mmHg
- Contraction Force Amplitude, Change from Placebo (healthy subjects; [6]): −4.2 mmHg
- Contraction Force Duration, Absolute Values (healthy subjects; [6]): 4.5 s
- Contraction Force Duration, Change from Placebo (healthy subjects; [6]): -0.0 s
- Contraction Force Amplitude, Absolute Values (healthy subjects; [7]): 85.5 mmHg
- Contraction Force Amplitude, Change from Placebo (healthy subjects; [7]): −7.1 mmHg
- Contraction Force Duration, Absolute Values (healthy subjects; [7]): 5.0 s
- Contraction Force Duration, Change from Placebo (healthy subjects; [7]): 0.4 s
- Contraction Force Amplitude, Absolute Values (healthy subjects; [8]): 84.7 mmHg
- Contraction Force Amplitude, Change from Placebo (healthy subjects; [8]): −3.6 mmHg
- Contraction Force Duration, Absolute Values (healthy subjects; [8]): 3.7 s
- Contraction Force Duration, Change from Placebo (healthy subjects; [8]): -0.5 s
- Contraction Force Amplitude, Absolute Values (healthy subjects; [9]): 85.4 mmHg
- Contraction Force Amplitude, Change from Placebo (healthy subjects; [9]): −2.8 mmHg
- Contraction Force Duration, Absolute Values (healthy subjects; [9]): 4.0 s
- Contraction Force Duration, Change from Placebo (healthy subjects; [9]): -0.2 s
- Contraction Force Amplitude, Absolute Values (healthy subjects; [10]): 61.5 mmHg
- Contraction Force Amplitude, Change from Placebo (healthy subjects; [10]): −5.3 mmHg
- Contraction Force Duration, Absolute Values (healthy subjects; [10]): 3.0 s
- Contraction Force Duration, Change from Placebo (healthy subjects; [10]): 0.1 s
- Contraction Force Amplitude, Absolute Values (healthy subjects; [11]): 59.3 mmHg
- Contraction Force Amplitude, Change from Placebo (healthy subjects; [11]): −7.5 mmHg
- Contraction Force Duration, Absolute Values (healthy subjects; [11]): 2.9 s
- Contraction Force Duration, Change from Placebo (healthy subjects; [11]): -0.0 s
- Velocity of Propagation, Onset, Absolute Values (healthy subjects; [12]): 3.7 cm/sec
- Velocity of Propagation, Onset, Change from Placebo (healthy subjects; [12]): 0.4 cm/sec
- Velocity of Propagation, Peak, Absolute Values (healthy subjects; [12]): 3.6 cm/sec
- Velocity of Propagation, Peak, Change from Placebo (healthy subjects; [12]): −0.2 cm/sec
- Velocity of Propagation, Onset, Absolute Values (healthy subjects; [13]): 3.5 cm/sec
- Velocity of Propagation, Onset, Change from Placebo (healthy subjects; [13]): 0.2 cm/sec
- Velocity of Propagation, Peak, Absolute Values (healthy subjects; [13]): 3.3 cm/sec
- Velocity of Propagation, Peak, Change from Placebo (healthy subjects; [13]): −0.5 cm/sec
- Velocity of Propagation, Onset, Absolute Values (healthy subjects; [14]): 2.3 cm/sec
- Velocity of Propagation, Onset, Change from Placebo (healthy subjects; [14]): 0.0 cm/sec
- Velocity of Propagation, Peak, Absolute Values (healthy subjects; [14]): 2.8 cm/sec
- Velocity of Propagation, Peak, Change from Placebo (healthy subjects; [14]): 0.1 cm/sec
- Velocity of Propagation, Onset, Absolute Values (healthy subjects; [15]): 2.3 cm/sec
- Velocity of Propagation, Onset, Change from Placebo (healthy subjects; [15]): −0.0 cm/sec
- Velocity of Propagation, Peak, Absolute Values (healthy subjects; [15]): 2.7 cm/sec
- Velocity of Propagation, Peak, Change from Placebo (healthy subjects; [15]): 0.0 cm/sec
- DN-AUC [3]: 14.1 (61) ng · h/mL
- AUC (0-inf) Ratio (Treatment B/A) [4]: 100%
- AUC (0-last) Ratio (Treatment B/A) [4]: 100%
- Cmax Ratio (Treatment B/A) [4]: 87%
- AUC and Cmax lower in males than in females ([4]; 16 mg): 56%
- Mean Cmax decrease with Maalox ([4]; 16 mg): 13%
- Mean half-life lower in males than in females ([4]; 16 mg): 41%
- Tmax (clinical [5]; both): 1 h
- Tmax (clinical [5]; both, 8 mg): 1 h
- AUC (clinical [5]; both, 8 mg): 112 ng·h/mL
- Cmax (clinical [5]; both, 8 mg): 43.3 ng/mL
- half-life (clinical [5]; both, 8 mg, T½): 1.44 h
- half-life (clinical [5]; both, 16 mg, T½): 1.3 h
- half-life (clinical [5]; both, Mean half-life): 1.2 to 1.4 h
- Tmax (clinical [5]; female, 8 mg): 1 h
- AUC (clinical [5]; female, 8 mg): 104 ng·h/mL
- Cmax (clinical [5]; female, 8 mg): 43.2 ng/mL
- half-life (clinical [5]; female, 8 mg, T½): 1.41 h
- Tmax (clinical [5]; female, po, 8 mg): 1 h
- AUC (clinical [5]; female, po, 8 mg): 138 ng·h/mL
- Cmax (clinical [5]; female, po, 8 mg): 52.2 ng/mL
- half-life (clinical [5]; female, po, 8 mg, T½): 1.45 h
- Tmax (clinical [5]; female, po, 16 mg): 1 h
- Tmax (clinical [5]; male, 8 mg): 1 h
- AUC (clinical [5]; male, 8 mg): 74.5 ng·h/mL
- Cmax (clinical [5]; male, 8 mg): 35.8 ng/mL
- half-life (clinical [5]; male, 8 mg, T½): 1.22 h
- Tmax (clinical [5]; male, po, 8 mg): 1 h
- AUC (clinical [5]; male, po, 8 mg): 89.9 ng·h/mL
- Cmax (clinical [5]; male, po, 8 mg): 35.5 ng/mL
- half-life (clinical [5]; male, po, 8 mg, T½): 1.44 h
- Tmax (clinical [5]; male, po, 16 mg): 1 h

From patent US20090176817A1, “Method of Treatment of Diarrhea-Predominant Irritable Bowel Syndrome in a Subject” (priority 2005, published 2009)
